This is an account of results in article PMC6411159, “Development of a high-throughput fluorescent no-wash sodium influx assay” (PLoS ONE, 2019).

Where two headings read alike, the source gives them in different places.

Data set [1] in a line: octanol-water partition of quencher dyes. The data set is classed as physicochemical. The note with it: 1 mM in 1:1 octanol/water, settled overnight. How it is done: Supplementary file pone.0213751.s002.pdf: S2 Fig Octanol-water partition of quencher dyes. Quenchers were added to 1:1 octanol/water volume to a 1mM concentration. Tubes were agitated and allowed to settle overnight. […] (PDF) Click here for additional data file.

The target of the next data set is T1, hNaV1.7 (Homo sapiens, UniProt Q15858).
T1 construct: host or cells: HEK293
The data set is classed as cell-based. As to the method:
(§1) HEK293 cells heterologously expressing human NaV1.1–1.8 (SB Drug Discovery, Glasgow, UK) were cultured in Minimum Essential Medium (MEM) (Sigma Aldrich #M5650) containing 10% v/v fetal bovine serum (FBS) and selection antibiotics as recommended by the manufacturer. SH-SY5Y human neuroblastoma cells (Victor Diaz, Goettingen, Germany) were cultured in Roswell Park Memorial Institute (RPMI) medium containing 15% v/v FBS and supplemented with L-glutamine (1 mM). […] Cells were grown in a humidified 5% CO2 incubator at 37°C, grown to 70–80% confluence, and passaged every 3–4 days using TrypLE Express (Invitrogen) or trypsin (0.25%).
(§2) Data were plotted and analyzed using GraphPad Prism, version 6.0. For concentration-response curves, a four-parameter Hill equation with variable Hill coefficient was fitted to the data. Statistical significance was defined as P < 0.05 and was determined by an unpaired t-test assuming equal variance or one-way ANOVA with Dunnett’s post-test as indicated. Data are presented as mean±SEM.

For a further data set, the target named is T2, human NaV1.7 (Homo sapiens, UniProt Q15858).
T2 construct: host or cells: HEK293
As to the kind of experiment: automated whole-cell patch-clamp electrophysiology (QPatch-16). The data set is classed as cell-based. The note with it: Ponceau 4R 1 mM. How it is done:
Automated whole-cell patch-clamp recordings were performed on HEK293 cells heterologously expressing human NaV1.7 (SB Drug Discovery, Glasgow, UK) using a QPatch-16 automated electrophysiology platform (Sophion Bioscience, Ballerup, Denmark) as previously described. The extracellular solution consisted of (in mM): NaCl 70, Choline chloride 70, KCl 4, CaCl2 2, MgCl2 1, HEPES 10 and glucose 10; pH 7.4; osmolarity 305 mOsm. The intracellular solution consisted of (in mM): CsF 140, EGTA/CsOH 1/5, HEPES 10 and NaCl 10; pH 7.3 with CsOH; osmolarity 320 mOsm. Ponceau 4R (1 mM) was diluted in extracellular solution and incubated for 5 min before running the voltage protocol and compared to time-matched buffer controls. Patch clamp experiments were conducted at room temperature.
I-V curves were obtained with the membrane potential held at –90 mV and a series of 500 ms step pulses that ranged from –110 to +55 mV in 5-mV increments. Conductance-voltage curves were calculated using the equation G = I/(V–Vrev), where G is conductance, I is peak current and Vrev is the reversal potential. Steady-state fast inactivation was tested using a two-pulse protocol, with 500 ms step pre-pulses (as above) preceding a 10 ms pulse of –20 mV (repetition interval 6000 ms). Both steady-state activation and inactivation curves were fitted using Boltzmann function.
(Patch clamp records ionic current or voltage across a cell membrane.)

A further data set relates to NaV1.8. On the set-up: method as in PMID 14769548. Conditions: cited from earlier work.
A further data set concerns the target T3, hNaV1.1 (Homo sapiens, UniProt P35498).
T3 construct: host or cells: HEK293
As to the kind of experiment: no-wash sodium influx assay (ANG-2 with quencher Ponceau 4R), FLIPR. The format is cell-based. The text has this:
(§3) […]. […] Data are presented as mean±SEM.

A further data set deals with NaV1.1–1.7. The note with it: read-out: EC50 range over NaV1.1–1.7; ANG-2 + Ponceau 4R 1 mM. How it is done:
as §1, §2

The target in a further data set is hNaV1.2 (Homo sapiens, UniProt Q99250). As to the kind of experiment: cell-based. As to the method: as §1, §2
For another data set, the system named is adenosine receptors. On the set-up: method as in PMID 20086038. The note with it: cited from earlier work.
The nature of data set [2]: absorbance spectra (UV-Vis spectrophotometry). The format is physicochemical. Conditions: diluted in water, NanoDrop ND1000. As to the method:
Quencher dyes Allura Red AC, Amaranth, Carmine, Brilliant Black BN (Sigma Aldrich), and Ponceau 4R (pillar box red food dye) (Queen Australia) were diluted in water to the maximum concentration required to be within detection range (250–1000 μM). Their absorbance spectra were measured with a NanoDrop^TM ND1000 (ThermoFisher Scientific) UV-Vis spectrophotometer and plotted vs UV-Vis spectrum wavelength using GraphPad Prism 6.0.

For a further data set, the target named is T4, TRPV4 (Homo sapiens, UniProt Q9HBA0).
T4 construct: endogenous in cells
As to the kind of experiment: FLIPR calcium dye assay in MDA-MB-468 breast cancer cells. Conditions: MDA-MB-468 cells, read-out: EC50 (increase in intracellular calcium). The data set is classed as cell-based. How it is done: FLIPR Calcium 4 no-wash dye (Molecular Devices) and BD Calcium Assay (BD Biosciences) kits were diluted in physiological salt solution as per manufacturers instructions. […] Raw fluorescence readings were converted to response over baseline using the analysis tool of Screenworks 3.1.1.4 (Molecular Devices) and were expressed relative to the maximum increase in fluorescence of control responses following 5 min incubation of compounds.
On the technique in general: A change in cytosolic calcium serves as a functional read-out for many receptors and channels.

In the next data set the test system is NaV1.1–1.8. As to the kind of experiment: no-wash sodium influx assay, summary over subtypes. The format is cell-based, human. The note with it: ANG-2 + Ponceau 4R 1 mM; stimulation with veratridine (NaV1.1–1.7) or deltamethrin (NaV1.8); read-out: IC50 range over NaV1.1–1.8.
Description: as §3

The target in the next data set is T5, hNaV1.8 (Homo sapiens, UniProt Q9Y5Y9).
T5 construct: host or cells: HEK293
As to the kind of experiment: no-wash sodium influx assay (ANG-2 with quencher Ponceau 4R), FLIPR. The data set is classed as cell-based.
Description: as §3

The target in another data set is T6, hNaV1.4 (Homo sapiens, UniProt P35499).
T6 construct: host or cells: HEK293
The description is as above. The note with it: hNaV1.4, response to veratridine 60 μM; read-out: IC50 (reduction of fluorescence response). The data set is classed as cell-based.
Description: as §3

[3] abbreviates: 5 min, vs time-matched buffer control.

T2 sequence (Q15858 whole entry): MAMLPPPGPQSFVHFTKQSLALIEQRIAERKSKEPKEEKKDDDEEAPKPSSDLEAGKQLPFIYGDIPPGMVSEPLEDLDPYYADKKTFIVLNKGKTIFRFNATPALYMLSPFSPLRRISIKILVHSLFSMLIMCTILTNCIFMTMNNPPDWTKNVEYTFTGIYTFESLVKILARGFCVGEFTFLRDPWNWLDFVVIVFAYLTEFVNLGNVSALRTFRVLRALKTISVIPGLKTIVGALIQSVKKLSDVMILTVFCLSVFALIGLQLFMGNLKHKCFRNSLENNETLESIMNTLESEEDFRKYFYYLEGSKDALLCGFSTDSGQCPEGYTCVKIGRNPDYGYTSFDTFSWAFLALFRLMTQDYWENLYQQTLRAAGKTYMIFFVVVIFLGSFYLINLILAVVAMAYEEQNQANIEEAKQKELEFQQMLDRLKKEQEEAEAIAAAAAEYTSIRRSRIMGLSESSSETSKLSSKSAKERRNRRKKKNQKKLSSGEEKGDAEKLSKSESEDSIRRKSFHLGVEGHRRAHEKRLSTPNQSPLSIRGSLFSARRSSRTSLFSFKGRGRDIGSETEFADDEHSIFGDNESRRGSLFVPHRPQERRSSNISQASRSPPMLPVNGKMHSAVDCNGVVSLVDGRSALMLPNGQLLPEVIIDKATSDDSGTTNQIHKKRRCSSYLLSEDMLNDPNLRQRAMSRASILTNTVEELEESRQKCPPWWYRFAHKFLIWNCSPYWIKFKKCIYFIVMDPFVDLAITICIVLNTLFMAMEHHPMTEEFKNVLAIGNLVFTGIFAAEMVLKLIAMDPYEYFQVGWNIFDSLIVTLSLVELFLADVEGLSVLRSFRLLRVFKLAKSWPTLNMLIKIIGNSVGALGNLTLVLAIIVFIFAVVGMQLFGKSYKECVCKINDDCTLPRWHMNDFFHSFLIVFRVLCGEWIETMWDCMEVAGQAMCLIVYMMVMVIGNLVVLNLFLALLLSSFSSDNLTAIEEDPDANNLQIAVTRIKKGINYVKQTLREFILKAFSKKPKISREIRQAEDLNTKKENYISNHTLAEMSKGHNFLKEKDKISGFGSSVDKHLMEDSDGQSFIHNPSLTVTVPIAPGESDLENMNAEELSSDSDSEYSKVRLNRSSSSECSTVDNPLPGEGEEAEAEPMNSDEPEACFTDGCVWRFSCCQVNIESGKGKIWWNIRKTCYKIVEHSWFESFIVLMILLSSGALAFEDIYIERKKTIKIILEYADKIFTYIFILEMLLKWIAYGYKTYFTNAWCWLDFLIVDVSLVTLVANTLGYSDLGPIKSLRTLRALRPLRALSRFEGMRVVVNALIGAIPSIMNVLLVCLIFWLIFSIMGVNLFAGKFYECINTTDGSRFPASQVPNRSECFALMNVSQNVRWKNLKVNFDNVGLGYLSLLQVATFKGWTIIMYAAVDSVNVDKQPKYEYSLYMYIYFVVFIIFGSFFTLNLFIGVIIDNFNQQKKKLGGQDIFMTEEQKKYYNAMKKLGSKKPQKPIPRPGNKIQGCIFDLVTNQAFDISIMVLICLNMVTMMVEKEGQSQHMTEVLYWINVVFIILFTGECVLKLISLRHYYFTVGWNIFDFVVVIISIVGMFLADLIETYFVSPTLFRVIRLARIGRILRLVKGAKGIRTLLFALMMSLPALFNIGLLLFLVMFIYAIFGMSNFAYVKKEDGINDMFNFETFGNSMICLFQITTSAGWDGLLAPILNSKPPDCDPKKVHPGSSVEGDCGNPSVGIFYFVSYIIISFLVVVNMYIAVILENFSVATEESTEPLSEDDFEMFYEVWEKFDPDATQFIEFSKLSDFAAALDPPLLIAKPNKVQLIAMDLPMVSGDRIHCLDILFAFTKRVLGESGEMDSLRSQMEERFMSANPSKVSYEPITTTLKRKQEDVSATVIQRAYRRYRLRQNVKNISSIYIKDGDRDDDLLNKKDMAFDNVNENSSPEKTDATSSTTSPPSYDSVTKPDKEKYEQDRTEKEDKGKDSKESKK
T4 sequence (Q9HBA0 whole entry): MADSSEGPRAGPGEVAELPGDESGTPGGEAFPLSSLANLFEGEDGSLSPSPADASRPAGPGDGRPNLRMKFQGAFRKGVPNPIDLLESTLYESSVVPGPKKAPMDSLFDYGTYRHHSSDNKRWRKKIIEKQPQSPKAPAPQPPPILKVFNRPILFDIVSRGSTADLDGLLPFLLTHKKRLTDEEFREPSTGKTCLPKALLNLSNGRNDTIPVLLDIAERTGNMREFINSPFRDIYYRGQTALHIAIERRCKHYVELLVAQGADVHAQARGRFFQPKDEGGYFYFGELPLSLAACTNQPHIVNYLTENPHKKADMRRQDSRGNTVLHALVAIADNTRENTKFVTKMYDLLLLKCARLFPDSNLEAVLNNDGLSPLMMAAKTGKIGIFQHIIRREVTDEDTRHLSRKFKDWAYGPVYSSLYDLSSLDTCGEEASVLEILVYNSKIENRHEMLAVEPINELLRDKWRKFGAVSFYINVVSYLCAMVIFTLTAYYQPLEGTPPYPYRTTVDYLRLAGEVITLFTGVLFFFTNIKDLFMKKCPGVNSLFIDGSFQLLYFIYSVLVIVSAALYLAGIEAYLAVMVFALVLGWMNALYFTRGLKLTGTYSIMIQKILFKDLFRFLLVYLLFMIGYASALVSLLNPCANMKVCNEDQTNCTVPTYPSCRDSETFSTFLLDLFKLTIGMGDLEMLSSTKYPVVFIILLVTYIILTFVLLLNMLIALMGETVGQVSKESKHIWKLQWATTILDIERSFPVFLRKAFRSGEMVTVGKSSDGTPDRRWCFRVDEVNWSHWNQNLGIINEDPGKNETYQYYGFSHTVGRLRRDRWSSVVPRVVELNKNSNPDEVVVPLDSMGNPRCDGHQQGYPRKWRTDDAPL
T5 sequence (Q9Y5Y9 whole entry): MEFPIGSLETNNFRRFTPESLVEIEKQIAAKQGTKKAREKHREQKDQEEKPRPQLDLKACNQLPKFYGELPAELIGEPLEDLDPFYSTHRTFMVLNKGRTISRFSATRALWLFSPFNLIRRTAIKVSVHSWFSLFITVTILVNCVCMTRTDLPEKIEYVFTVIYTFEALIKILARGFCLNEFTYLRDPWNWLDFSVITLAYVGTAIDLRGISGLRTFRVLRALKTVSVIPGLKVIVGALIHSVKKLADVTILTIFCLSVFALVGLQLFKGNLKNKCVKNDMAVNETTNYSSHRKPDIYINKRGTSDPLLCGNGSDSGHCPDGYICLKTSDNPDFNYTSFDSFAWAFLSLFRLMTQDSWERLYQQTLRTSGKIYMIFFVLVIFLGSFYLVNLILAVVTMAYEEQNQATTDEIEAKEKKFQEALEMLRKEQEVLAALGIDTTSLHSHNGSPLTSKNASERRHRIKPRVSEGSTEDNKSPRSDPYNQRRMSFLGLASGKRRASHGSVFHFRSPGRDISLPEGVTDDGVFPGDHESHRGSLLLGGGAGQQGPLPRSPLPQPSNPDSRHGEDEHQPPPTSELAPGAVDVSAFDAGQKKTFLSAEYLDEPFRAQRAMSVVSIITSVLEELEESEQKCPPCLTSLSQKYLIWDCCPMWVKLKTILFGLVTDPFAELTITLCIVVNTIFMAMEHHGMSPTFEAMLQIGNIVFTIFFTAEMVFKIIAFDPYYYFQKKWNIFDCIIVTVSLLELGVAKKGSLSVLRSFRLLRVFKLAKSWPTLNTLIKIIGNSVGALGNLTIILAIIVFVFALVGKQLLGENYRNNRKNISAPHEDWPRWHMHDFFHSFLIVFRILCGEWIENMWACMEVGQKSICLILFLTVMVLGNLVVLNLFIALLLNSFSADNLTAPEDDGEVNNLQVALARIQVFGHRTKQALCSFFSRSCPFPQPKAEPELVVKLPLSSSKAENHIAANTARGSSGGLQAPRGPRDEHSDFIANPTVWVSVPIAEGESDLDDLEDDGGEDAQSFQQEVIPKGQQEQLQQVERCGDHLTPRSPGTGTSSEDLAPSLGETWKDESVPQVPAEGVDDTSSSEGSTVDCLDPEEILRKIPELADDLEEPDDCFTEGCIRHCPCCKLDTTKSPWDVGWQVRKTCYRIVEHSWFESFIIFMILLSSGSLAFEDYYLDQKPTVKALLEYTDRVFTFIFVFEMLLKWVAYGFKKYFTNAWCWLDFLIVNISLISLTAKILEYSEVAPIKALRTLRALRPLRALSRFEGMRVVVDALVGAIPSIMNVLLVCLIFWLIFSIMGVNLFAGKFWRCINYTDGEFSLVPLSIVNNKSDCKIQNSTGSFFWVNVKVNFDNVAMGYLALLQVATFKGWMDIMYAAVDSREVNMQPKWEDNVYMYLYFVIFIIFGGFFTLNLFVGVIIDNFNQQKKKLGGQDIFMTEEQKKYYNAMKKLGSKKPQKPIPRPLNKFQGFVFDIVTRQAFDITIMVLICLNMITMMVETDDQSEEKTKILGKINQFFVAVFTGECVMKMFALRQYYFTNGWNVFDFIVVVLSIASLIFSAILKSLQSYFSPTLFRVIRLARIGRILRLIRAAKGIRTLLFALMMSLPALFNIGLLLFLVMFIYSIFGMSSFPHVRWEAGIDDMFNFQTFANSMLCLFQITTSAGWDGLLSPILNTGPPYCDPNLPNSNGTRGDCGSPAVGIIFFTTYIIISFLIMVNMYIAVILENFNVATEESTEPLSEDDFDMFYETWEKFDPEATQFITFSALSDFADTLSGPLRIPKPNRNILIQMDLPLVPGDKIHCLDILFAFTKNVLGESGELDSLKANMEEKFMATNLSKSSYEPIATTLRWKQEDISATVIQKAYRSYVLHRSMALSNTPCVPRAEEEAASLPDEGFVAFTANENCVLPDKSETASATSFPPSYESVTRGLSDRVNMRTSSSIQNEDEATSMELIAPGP
T1 sequence (Q15858 whole entry): as the sequence (Q15858 whole entry) above

Take `Cc1c(C(=O)O)c(O)cc2c1C(=O)c1c(O)c(C3O[C@H](CO)[C@@H](O)[C@H](O)[C@H]3O)c(O)c(O)c1C2=O` (stereo in doubt) [Carmine]: the octanol-water partition entry in data set [1] is given as “partitioned into the octanol phase”. Also, the “veratridine-induced fluorescence signal in presence of quencher” value on hNaV1.7 is “comparatively low signal”.

As for `O=S(=O)([O-])c1cc(S(=O)(=O)[O-])c2c(N=Nc3ccc(S(=O)(=O)[O-])c4ccccc34)c(O)ccc2c1.[Na+].[Na+].[Na+]` [Ponceau 4R], on human NaV1.7, the “effect on activation or inactivation kinetics of NaV1.7” value is listed as “no effect” and the “shift in the I-V curve or effect on current size” value is listed as “did not cause a shift in the I-V curve or affect the current size”. For the same compound, on human NaV1.7 (setting [3]), the “shift in voltage-dependence of activation (V1/2 activation Δ)” value is recorded as “–0.96 mV” and the “shift in voltage-dependence of steady-state fast inactivation (V1/2 inactivation Δ)” value is “–1.46 mV”.

Regarding `COc1ccc(C(=O)O[C@H]2CC[C@@]3(C)[C@@H]4CC[C@H]5[C@]6(O)C[C@H](O)[C@@]7(O)[C@@H](CN8C[C@@H](C)CC[C@H]8[C@@]7(C)O)[C@]6(O)C[C@@]53O[C@]24O)cc1OC` [veratridine], the “effect on NaV1.8 in fluorescence-based assays” value with NaV1.8 is reported as “little effect”. In addition, the EC50 (in general, the midpoint of the concentration-response curve) was 21 µM on hNaV1.1 (EC50 (increase in fluorescence), hNaV1.1, ANG-2 + Ponceau 4R); 21.9 µM on hNaV1.1 (Veratridine pEC50, HEK293 hNaV1.1, ANG-2 + Ponceau 4R 1 mM, AUC 5 min); 10 to 29 µM with NaV1.1–1.7; 16 µM on hNaV1.2 (EC50 (increase in fluorescence), hNaV1.2, ANG-2 + Ponceau 4R); 16.6 µM on hNaV1.2 (Veratridine pEC50, HEK293 hNaV1.2, ANG-2 + Ponceau 4R 1 mM, AUC 5 min).

Regarding `CC(=O)Nc1ccc(S(=O)(=O)[O-])c2cc(S(=O)(=O)[O-])c(N=Nc3ccc(N=Nc4ccc(S(=O)(=O)[O-])cc4)c4ccc(S(=O)(=O)[O-])cc34)c(O)c12.[Na+].[Na+].[Na+].[Na+]` [Brilliant Black BN], the “action on adenosine receptors” value in the data set on adenosine receptors is reported as “allosteric modulator”. Moreover, the “peak absorption (λ max)” value in [2] was 575 nm.

`CC(C)C[C@H](NC(=O)c1cc2ccccc2s1)C(=O)N1CCN(C(=O)[C@H](CO)NS(=O)(=O)c2ccc(Cl)cc2Cl)CC1` [GSK1016790A]: the EC50 at TRPV4 (BD Calcium Assay Kit) was found to be 0.04 µM; at TRPV4 (FLIPR Calcium 4 no-wash dye), 0.08 µM; at TRPV4 (fluo-4 with Allura Red 1 mM) it was 0.064 µM; at TRPV4 (fluo-4 with Amaranth 1 mM) it was 0.07 µM; at TRPV4 (fluo-4 with Brilliant Black BN 1 mM), 0.072 µM; at TRPV4 (fluo-4 with Ponceau 4R 1 mM) it was 0.074 µM. Further, on TRPV4 (fluo-4 with wash), the EC50 was 0.047 µM.

As for `COc1cc(S(=O)(=O)[O-])c(C)cc1N=Nc1c(O)ccc2cc(S(=O)(=O)[O-])ccc12.[Na+].[Na+]` [Allura Red, Allura Red AC], the octanol-water partition result in data set [1] is “partitioned into the octanol phase”.

For `CCCCNc1ccc(C(=O)OCCN(C)C)cc1` [tetracaine], the IC50 (as a rule, the concentration at which inhibition is half-maximal) in the data set with NaV1.1–1.8 was 6 to 66 µM; on hNaV1.1 (hNaV1.1, response to veratridine 60 μM, read-out: IC50 (reduction of fluorescence response)), 52 µM; on hNaV1.8 (Tetracaine pIC50, hNaV1.8, 5 min pre-incubation, then deltamethrin 150 μM), 6.61 µM; at hNaV1.8 (hNaV1.8, response to deltamethrin 150 μM, read-out: IC50 (reduction of fluorescence response)), 6 µM; at hNaV1.4 it was 13 µM.
